Experimental data reported in patent US20260215430A1, “HERBICIDAL COMPOSITIONS” (SYNGENTA CROP PROTECTION AG, priority 2022, published 2026).

Columns and labels:
[1] = tested on: ABUTH; assay: Post-emergence study L-GLU+MST, ABUTH control; type: in vivo, Velvet Leaf (Abutilon theophrast); conditions: 7 days after treatment
Source text: (§1) In a post-emergence study of AMPA, CHEAL, and ABUTH (Velvet Leaf (Abutilon theophrast)) applications were done to 2 to 4-inch weeds with a spray volume of 15 gallons/acre. Treatments applied are described below, and further included an adjuvant.
The results of ABUTH control with L-GLU+MST mixtures at 7 days after treatment are summarized in the below matrix, where bolded values represent synergy as calculated by Colby.

[2] = tested on: AMAPA; assay: Post-emergence study L-GLU+MST, AMAPA control; type: in vivo, Amaranthus palmeri; conditions: 7 days after treatment
Source text: as §1
The results of AMAPA control with L-GLU+MST mixtures at 7 days after treatment are summarized in the below matrix, where bolded values represent synergy as calculated by Colby.

[3] = tested on: SETFA; assay: Post-emergence study L-GLU+BIR, SETFA control; type: in vivo, Setaria faberi
Source text: (§2) In a post-emergence study of AMPA, CHEAL, and Setaria faberi (SETFA) applications were done to 2 to 4-inch weeds with a spray volume of 15 gallons/acre. Treatments applied are described below, and further included an adjuvant.
The results of SETFA control with L-GLU+BIR (bicyclopyrone) mixtures at 7 and 14 days after treatment, respectively, are summarized in the below matrix, where bolded values represent synergy as calculated by Colby.

[4] = tested on: Grasses; assay: Postemergence field study on natural weed populations, grasses; type: in vivo; conditions: 28-31 DAA
[5] = tested on: AMAPA; assay: Post-emergence study L-GLU+BIR, AMAPA control; type: in vivo, Amaranthus palmeri; conditions: 9 days after treatment
Source text: as §2
The results of AMAPA control with L-GLU+BIR (bicyclopyrone) mixtures at 9 days after treatment are summarized in the below matrix, where bolded values represent synergy as calculated by Colby.

[6] = tested on: All weeds; assay: Postemergence field study on natural weed populations, all weeds; type: in vivo; conditions: 28-31 DAA
[7] = tested on: CHEAL; assay: Post-emergence study L-GLU+MST, CHEAL control; type: in vivo, Chenopodium Album L.; conditions: 7 days after treatment
Source text: as §1
The results of CHEAL control with L-GLU+MST mixtures at 7 days after treatment are summarized in the below matrix, where bolded values represent synergy as calculated by Colby.

[8] = tested on: CHEAL; assay: Post-emergence study L-GLU+BIR, CHEAL control; type: in vivo, Chenopodium Album L.; conditions: 9 days after treatment
Source text: as §2
The results of CHEAL control with L-GLU+BIR (bicyclopyrone) mixtures at 9 days after treatment are summarized in the below matrix, where bolded values represent synergy as calculated by Colby.

[9] = tested on: SSBL (AMAPA, CHEAL, AMBEL); assay: Postemergence field study on natural weed populations, small seeded broadleaf; type: in vivo; conditions: 28-31 DAA
Experimental: In a postemergence field study on a natural weed populations. Herbicides were applied to 4-5″ weeds and efficacy was evaluated at 14 and 28-35 days after application. Rates were in g ai/ha. Data shown was small seeded broadleaf (SSBL; AMPA=Amaranthus palmeri; CHEAL=Chenopodium Album L.; AMBEL=Ambrosia Artemisiifolia L.) control 28-31 DAA. 100% was completely dead and 0% was no plant response.

CP(=O)(O)CC[C@H](N)C(=O)O [L-glufosinate]
% Control ABUTH ([1]; L-GLU 5 g ai/ha alone): 2%
% Control ABUTH ([1]; L-GLU 10 g ai/ha alone): 8%
% Control ABUTH ([1]; L-GLU 30 g ai/ha alone): 38%
% Control ABUTH ([1]; L-GLU 60 g ai/ha alone): 67%
% Control ABUTH ([1]; L-GLU 120 g ai/ha alone): 87%
% Control AMAPA ([2]; L-GLU 5 g ai/ha alone): 27%
% Control AMAPA ([2]; L-GLU 10 g ai/ha alone): 33%
% Control AMAPA ([2]; L-GLU 30 g ai/ha alone): 83%
% Control AMAPA ([2]; L-GLU 60 g ai/ha alone): 97%
% Control AMAPA ([2]; L-GLU 120 g ai/ha alone): 100%
% Control SETFA ([3]; L-GLU 5 g ai/ha alone, 14 Days after Treatment): 10%
% Control SETFA ([3]; L-GLU 5 g ai/ha alone, 7 days after treatment): 13%
% Control SETFA ([3]; L-GLU 10 g ai/ha alone, 14 Days after Treatment): 35%
% Control SETFA ([3]; L-GLU 10 g ai/ha alone, 7 days after treatment): 48%
% Control SETFA ([3]; L-GLU 30 g ai/ha alone, 14 Days after Treatment): 65%
% Control SETFA ([3]; L-GLU 30 g ai/ha alone, 7 days after treatment): 85%
% Control SETFA ([3]; L-GLU 60 g ai/ha alone, 14 Days after Treatment): 89%
% Control SETFA ([3]; L-GLU 60 g ai/ha alone, 7 days after treatment): 95%
% Control SETFA ([3]; L-GLU 120 g ai/ha alone, 14 Days after Treatment): 100%
% Control SETFA ([3]; L-GLU 120 g ai/ha alone, 7 days after treatment): 100%
control, Grasses ([4]; L-glufosinate 328 g/ha): 83%
% Control AMAPA ([5]; L-GLU 5 g ai/ha alone): 17%
% Control AMAPA ([5]; L-GLU 10 g ai/ha alone): 23%
% Control AMAPA ([5]; L-GLU 30 g ai/ha alone): 57%
% Control AMAPA ([5]; L-GLU 60 g ai/ha alone): 87%
% Control AMAPA ([5]; L-GLU 120 g ai/ha alone): 93%
control, All weeds ([6]; L-glufosinate 328 g/ha): 70%
% Control CHEAL ([7]; L-GLU 5 g ai/ha alone): 3%
% Control CHEAL ([7]; L-GLU 10 g ai/ha alone): 8%
% Control CHEAL ([7]; L-GLU 30 g ai/ha alone): 72%
% Control CHEAL ([7]; L-GLU 60 g ai/ha alone): 90%
% Control CHEAL ([7]; L-GLU 120 g ai/ha alone): 90%
% Control CHEAL ([8]; L-GLU 5 g ai/ha alone): 0%
% Control CHEAL ([8]; L-GLU 10 g ai/ha alone): 13%
% Control CHEAL ([8]; L-GLU 30 g ai/ha alone): 38%
% Control CHEAL ([8]; L-GLU 60 g ai/ha alone): 88%
% Control CHEAL ([8]; L-GLU 120 g ai/ha alone): 100%
control, SSBL (AMAPA, CHEAL, AMBEL) ([9]; L-glufosinate 328 g/ha): 55%

CS(=O)(=O)c1ccc(C(=O)C2C(=O)CCCC2=O)c([N+](=O)[O-])c1 [Mesotrione]
% Control ABUTH ([1]; MST 1.5 g ai/ha alone): 85%
% Control ABUTH ([1]; MST 3 g ai/ha alone): 83%
% Control ABUTH ([1]; MST 6 g ai/ha alone): 95%
% Control ABUTH ([1]; MST 12 g ai/ha alone): 92%
% Control ABUTH ([1]; MST 24 g ai/ha alone): 96%
% Control ABUTH ([1]; MST 60 g ai/ha alone): 92%
% Control AMAPA ([2]; MST 1.5 g ai/ha alone): 20%
% Control AMAPA ([2]; MST 3 g ai/ha alone): 30%
% Control AMAPA ([2]; MST 6 g ai/ha alone): 37%
% Control AMAPA ([2]; MST 12 g ai/ha alone): 72%
% Control AMAPA ([2]; MST 24 g ai/ha alone): 85%
% Control AMAPA ([2]; MST 60 g ai/ha alone): 85%
control, Grasses ([4]; Mesotrione 105 g/ha): 35%
control, All weeds ([6]; Mesotrione 105 g/ha): 44%
% Control CHEAL ([7]; MST 1.5 g ai/ha alone): 78%
% Control CHEAL ([7]; MST 3 g ai/ha alone): 85%
% Control CHEAL ([7]; MST 6 g ai/ha alone): 92%
% Control CHEAL ([7]; MST 12 g ai/ha alone): 93%
% Control CHEAL ([7]; MST 24 g ai/ha alone): 93%
% Control CHEAL ([7]; MST 60 g ai/ha alone): 90%
control, SSBL (AMAPA, CHEAL, AMBEL) ([9]; Mesotrione 105 g/ha): 26%

bicyclopyrone
% Control SETFA ([3]; BIR 3.13 g ai/ha alone, 7 Days after Treatment): 28%
% Control SETFA ([3]; BIR 3.13 g ai/ha alone, 14 Days after Treatment): 23%
% Control SETFA ([3]; BIR 6.25 g ai/ha alone, 7 Days after Treatment): 35%
% Control SETFA ([3]; BIR 6.25 g ai/ha alone, 14 Days after Treatment): 32%
% Control SETFA ([3]; BIR 12.5 g ai/ha alone, 7 Days after Treatment): 62%
% Control SETFA ([3]; BIR 12.5 g ai/ha alone, 14 Days after Treatment): 45%
% Control SETFA ([3]; BIR 25 g ai/ha alone, 7 Days after Treatment): 73%
% Control SETFA ([3]; BIR 25 g ai/ha alone, 14 Days after Treatment): 58%
% Control SETFA ([3]; BIR 50 g ai/ha alone, 7 Days after Treatment): 78%
% Control SETFA ([3]; BIR 50 g ai/ha alone, 14 Days after Treatment): 75%
% Control SETFA ([3]; BIR 100 g ai/ha alone, 7 Days after Treatment): 77%
% Control SETFA ([3]; BIR 100 g ai/ha alone, 14 Days after Treatment): 90%
% Control AMAPA ([5]; BIR 1.56 g ai/ha alone): 27%
% Control AMAPA ([5]; BIR 3.13 g ai/ha alone): 37%
% Control AMAPA ([5]; BIR 6.25 g ai/ha alone): 48%
% Control AMAPA ([5]; BIR 12.5 g ai/ha alone): 53%
% Control AMAPA ([5]; BIR 25 g ai/ha alone): 80%
% Control AMAPA ([5]; BIR 50 g ai/ha alone): 90%
% Control CHEAL ([8]; BIR 1.56 g ai/ha alone): 58%
% Control CHEAL ([8]; BIR 3.13 g ai/ha alone): 75%
% Control CHEAL ([8]; BIR 6.25 g ai/ha alone): 88%
% Control CHEAL ([8]; BIR 12.5 g ai/ha alone): 92%
% Control CHEAL ([8]; BIR 25 g ai/ha alone): 96%
% Control CHEAL ([8]; BIR 50 g ai/ha alone): 97%
